Literature values as cited in US7491718B2, “Sulfonamides having antiangiogenic and anticancer activity” (Abbott Laboratories, priority 2002, dated 2009).

Biological target: type 2-methionine aminopeptidase (MetAP-2) (Homo sapiens, UniProt P50579)
Details: reported in Proc. Natl. Acad. Sci. USA 94: 6099-6103 (1997) and Chemistry and Biology, 4(6): 461-471 (1997)

Sequence of type 2-methionine aminopeptidase (MetAP-2) (P50579 whole entry, species assumed): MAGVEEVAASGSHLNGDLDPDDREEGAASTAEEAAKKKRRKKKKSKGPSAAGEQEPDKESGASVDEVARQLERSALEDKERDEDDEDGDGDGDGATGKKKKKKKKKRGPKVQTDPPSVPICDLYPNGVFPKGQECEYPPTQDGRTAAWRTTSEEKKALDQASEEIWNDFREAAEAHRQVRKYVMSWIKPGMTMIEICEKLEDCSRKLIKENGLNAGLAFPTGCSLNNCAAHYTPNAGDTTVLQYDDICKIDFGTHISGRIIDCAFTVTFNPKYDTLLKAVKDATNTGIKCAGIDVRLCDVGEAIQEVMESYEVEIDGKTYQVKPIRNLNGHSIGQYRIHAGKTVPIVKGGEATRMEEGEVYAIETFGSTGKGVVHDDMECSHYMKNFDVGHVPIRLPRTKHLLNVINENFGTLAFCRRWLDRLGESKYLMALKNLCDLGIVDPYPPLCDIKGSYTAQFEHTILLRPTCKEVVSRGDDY

## CO[C@@H]1[C@H](OC(=O)NC(=O)CCl)CC[C@]2(CO2)[C@H]1[C@@]1(C)O[C@@H]1CC=C(C)C [AGM-1470]
  binding to MetAP-2: bind
